In patent US6482830B1 (SuperGen, Inc., priority 2002, dated 2002):
Where two headings read alike, the source gives them in different places.

What was measured:
[1] = cited from earlier work
DNA topoisomerase I = target: T1, DNA topoisomerase I (Homo sapiens, UniProt P11387); conditions: by stabilizing the cleavable complex; cited from earlier work
T1 sequence (P11387 1-765): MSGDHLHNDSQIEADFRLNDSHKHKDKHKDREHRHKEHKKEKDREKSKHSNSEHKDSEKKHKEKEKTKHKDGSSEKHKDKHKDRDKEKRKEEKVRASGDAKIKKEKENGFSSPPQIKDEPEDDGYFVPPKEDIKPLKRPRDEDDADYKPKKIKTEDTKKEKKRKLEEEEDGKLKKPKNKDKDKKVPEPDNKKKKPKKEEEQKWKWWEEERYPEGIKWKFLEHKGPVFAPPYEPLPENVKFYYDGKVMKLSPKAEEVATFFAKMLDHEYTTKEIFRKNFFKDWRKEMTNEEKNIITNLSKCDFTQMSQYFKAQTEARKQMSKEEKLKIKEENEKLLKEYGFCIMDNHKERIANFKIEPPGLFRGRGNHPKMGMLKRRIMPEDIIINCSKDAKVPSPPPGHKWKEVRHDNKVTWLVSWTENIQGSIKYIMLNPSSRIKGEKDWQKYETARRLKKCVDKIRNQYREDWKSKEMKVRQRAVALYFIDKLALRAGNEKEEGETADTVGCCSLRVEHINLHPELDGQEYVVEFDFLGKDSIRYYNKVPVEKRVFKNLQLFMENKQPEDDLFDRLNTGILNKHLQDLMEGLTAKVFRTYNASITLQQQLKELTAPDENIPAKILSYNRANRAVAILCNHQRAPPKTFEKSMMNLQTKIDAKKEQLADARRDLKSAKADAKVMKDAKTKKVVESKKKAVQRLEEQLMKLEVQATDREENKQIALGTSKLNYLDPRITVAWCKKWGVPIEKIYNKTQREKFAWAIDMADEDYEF

[2] = cited from earlier work; remark: listed apart in the source
[3] = closed vial, 31 days, ambient conditions
[4] = for Weight % chg: 25 deg C; for Hygroscopicity: from moisture sorption 5 to 95% RH
Experimental: Moisture sorption/desorption data were collected on a VTI SGA-100 moisture balance system. […] The samples were not dried prior to analysis. Equilibrium criteria used for analysis were less than 0.0100 weight % change in 5 minutes with a maximum equilibration time of 3 hours if the weight criterion was not met. Data were not corrected for the initial moisture content of the samples.

[5] = test system: human colon cancer xenografts; conditions: in vivo; cited from earlier work
human tumor xenografts = conditions: cited from earlier work
[6] = Experimental: Dehydration/desolvation studies were conducted by placing a sample under continuous vacuum at room temperature for 14 days. An XRPD pattern was obtained on the remaining solid and compared to the starting material.
[7] = ground in an amalgamator for 10 minutes

Structure (SMILES): CC[C@@]1(O)C(=O)OCc2c1cc1n(c2=O)Cc2cc3ccccc3nc2-1 [Camptothecin]
- Water solubility [1]: poorly water soluble
- Inhibition of DNA topoisomerase I (DNA topoisomerase I): inhibit DNA topoisomerase I

Structure (SMILES): CC[C@@](O)(C(=O)[O-])c1cc2n(c(=O)c1CO)Cc1cc3ccccc3nc1-2.[Na+] [Sodium camptothecin]
- Side effects in clinical trials ([2]; administered intravenously): myelosuppression and hemorrhagic cystitis
- Antineoplastic activity in clinical trials ([2]; solubilized by sodium hydroxide in water, early 1970's trials): found to have antineoplastic activity

Structure (SMILES): CC[C@@]1(O)C(=O)OCc2c1cc1n(c2=O)Cc2cc3c([N+](=O)[O-])cccc3nc2-1 [Form B, 9-nitro-20(S)-camptothecin]
- Stability of the crystalline polymorph on storage (XRPD pattern) [3]: relatively stable
- Total weight gained in the region from 5 to 95% RH ([4]; 5 to 95% RH): 2.21%
- Weight % chg ([4]; desorption, about 5% RH): −1.0408%
- Weight % chg ([4]; desorption, about 15% RH): −0.5118%
- Weight % chg ([4]; desorption, about 25% RH): −0.1151%
- Weight % chg ([4]; desorption, about 35% RH): 0.1861%
- Weight % chg ([4]; desorption, about 45% RH): 0.4359%
- Weight % chg ([4]; desorption, about 55% RH): 0.6637%
- Weight % chg ([4]; desorption, about 65% RH): 0.8473%
- Weight % chg ([4]; desorption, about 75% RH): 1.0310%
- Weight % chg ([4]; desorption, about 85% RH): 1.1706%
- Water lost upon equilibration at 5% RH ([4]; equilibration at 5% RH): 0.98%
- Hygroscopicity [4]: relatively hygroscopic
- Weight % chg ([4]; sorption, about 5% RH): −0.9820%
- Weight % chg ([4]; sorption, about 15% RH): −0.4898%
- Weight % chg ([4]; sorption, about 25% RH): −0.1151%
- Weight % chg ([4]; sorption, about 35% RH): 0.1788%
- Weight % chg ([4]; sorption, about 45% RH): 0.4286%
- Weight % chg ([4]; sorption, about 55% RH): 0.6416%
- Weight % chg ([4]; sorption, about 65% RH): 0.8314%
- Weight % chg ([4]; sorption, about 75% RH): 0.9869%
- Weight % chg ([4]; sorption, about 85% RH): 1.1118%
- Weight % chg ([4]; sorption, about 95% RH): 1.2293%
- Weight % chg ([4]; start, elapsed time 0.0 min): 0.0000%

Structure (SMILES): CC[C@@]1(O)C(=O)OCc2c1cc1n(c2=O)Cc2cc3cc4c(cc3nc2-1)OCO4 [10,11,MD, 10,11-methylendioxy-20(S)-camptothecin]
- Anticancer activity against human colon cancer xenografts [5]: high anticancer activity

Structure (SMILES): CC[C@@]1(O)C(=O)OCc2c1cc1n(c2=O)Cc2cc3c([N+](=O)[O-])cccc3nc2-1 [9-nitrocamptothecin, 9-nitro-20(S)-camptothecin]
- Growth of human tumor xenografts (human tumor xenografts; immunodeficient nude mice): inhibited the growth
- Activity against human tumor xenograft models (human tumor xenografts; mouse, in vivo): high activity
- Regression of established human tumors (human tumor xenografts; xenografts in nude mice): induced regression

Structure (SMILES): CC[C@@]1(O)C(=O)OCc2c1cc1n(c2=O)Cc2cc3c([N+](=O)[O-])cccc3nc2-1 [Form C, 9-nitro-20(S)-camptothecin]
- Change of form on desolvation under vacuum [6]: becomes amorphous

Structure (SMILES): CC[C@@]1(O)C(=O)OCc2c1cc1n(c2=O)Cc2cc3c([N+](=O)[O-])cccc3nc2-1 [Form A, 9-nitro-20(S)-camptothecin]
- Change of crystallinity on grinding (XRPD) [7]: losing crystallinity after grinding
- Hygroscopicity [4]: not hygroscopic

Structure (SMILES): CC[C@@]1(O)C(=O)OCc2c1cc1n(c2=O)Cc2cc3c(N)cccc3nc2-1 [Form 9AC, 9-Amino-20(S)-Camptothecin]
- Anticancer activity against human colon cancer xenografts [5]: high anticancer activity
